{"source": "patent US20180230519A1", "about": "“METHODS AND KITS FOR SELECTING TREATMENT FOR ORAL INFECTIONS” (OraVital Inc., priority 2017, published 2018)", "key": {"[1]": {"system": "Aggregatibacter actinomycetemcomitans", "details": "general statement, no test described; cited from earlier work"}, "[2]": {"system": "oral malodor and periodontal disease", "assay": "Clinical study of antibiotic antifungal rinse in patients with halitosis", "protocol": "(§1) Tongue base, tongue dorsum, and proximal areas of the dentition were evaluated for odors. Biofilm samples from these areas were taken from each patient. A Gram stain analysis provided morphological information on the microorganisms present in the oral cavity. In addition, the microbiology of the teeth and tongue was tested with a BANA strip for red complex clusters. Six-point periodontal probing was used to assess pocket depth and bleeding points.\n(§2) Treatment initially consisted of rinsing with chlorhexidine 0.2% for 2 weeks, twice daily.\n(§3) The treatment chosen was the metronidazole-nystatin rinse prepared as described in Example 3. Three times a day, patients dispensed a “capful” (2 ml) of this mixture, swished and gargled for 30 seconds, and expectorated the contents. Once per day, they flossed immediately after rinsing. After each rinse with antibiotic mixture, patients were to abstain from eating or drinking for 30 minutes. After 2 weeks of rinsing, patients returned to the clinic for an evaluation of treatment. Breath odor measurements and periodontal measurements were repeated, and compared with those taken at the initial appointment. Microbiology samples of the tongue base, tongue dorsum, and teeth were taken, analyzed, and compared with the pre-treatment samples. Patients were then placed on chlorhexidine 0.2% for 2 more weeks, followed by routine rinsing with non-prescription mouthwashes that the patient selected."}, "Solubility in water": {"assay": "Solubility in water", "assay_type": "physicochemical", "procedure": "A metronidazole-nystatin mixture was prepared for use as an oral rinse to treat halitosis, gingivitis, tonsillitis, and/or mild to moderate periodontal disease. Tablets of metronidazole (APO-Metronidazole™, Apotex Corp.) were crushed and grounded, the larger particles filtered out, and the fine particles mixed with nystatin suspension or nystatin powder (Nilstat™, Alimed or PMS PharmaScience) in distilled water."}, "[3]": {"system": "oral malodor and periodontal disease", "details": "human, in vivo", "protocol": "as §1, §2, §3"}}, "note": "Where two headings read alike, the source gives them in different places."}
{"smiles": "CC1(C)S[C@@H]2[C@H](NC(=O)[C@H](N)c3ccc(O)cc3)C(=O)N2[C@H]1C(=O)O", "note": "[amoxicillin]", "values": [{"measurement": "response of Aggregatibacter actinomycetemcomitans", "setting": "[1]", "value": "responds best"}]}
{"smiles": "[H]/N=C(\\N/C(=N/[H])NCCCCCCNC(=N)NC(=N)Nc1ccc(Cl)cc1)Nc1ccc(Cl)cc1", "note": "[chlorhexidine]", "values": [{"measurement": "reduction of oral malodor", "setting": "[2]; chlorhexidine 0.2% rinse alone, 2 weeks, twice daily", "value": "insufficient to completely reduce oral malodor"}]}
{"smiles": "CCC[C@@H]1C[C@@H](C(=O)N[C@@H]([C@H]2O[C@H](SC)[C@H](O)[C@@H](O)[C@H]2O)[C@H](C)Cl)N(C)C1", "note": "[clindamycin]", "values": [{"measurement": "side effects", "setting": "[2]; systemic metronidazole and clindamycin, followed by 0.2% chlorhexidine", "value": "systemic side effects"}]}
{"smiles": "Cc1ncc([N+](=O)[O-])n1CCO", "note": "[metronidazole]", "values": [{"measurement": "solubility in water", "setting": "Solubility in water", "value": "sparingly soluble or practically insoluble"}, {"measurement": "Aggregatibacter actinomycetemcomitans responds (share of the time)", "setting": "[1]", "value": "about 50 % of the time"}, {"measurement": "side effects", "setting": "[3]", "value": "systemic side effects"}]}
{"smiles": "C[C@@H]1[C@H](O)[C@@H](C)/C=C/C=C/CC/C=C/C=C/C=C/C=C/C(O[C@H]2O[C@H](C)[C@@H](O)[C@H](N)[C@@H]2O)CC2O[C@](O)(CC(O)C(O)CCC(O)CC(O)CC(O)CC(=O)O[C@H]1C)CC(O)C2C(=O)O", "note": "(stereo partly shown) [nystatin]", "values": [{"measurement": "solubility in water", "setting": "Solubility in water; water, form a suspension or dispersion", "value": "sparingly soluble or practically insoluble"}]}
